In the Kinase Knowledgebase extract (Sharma et al. 2016):

Target: PIK3CA (human) (UniProt P42336)
Test: Assessment of PIK3CA Kinase Activity

PIK3CA (human), sequence (P42336 whole entry, looked up): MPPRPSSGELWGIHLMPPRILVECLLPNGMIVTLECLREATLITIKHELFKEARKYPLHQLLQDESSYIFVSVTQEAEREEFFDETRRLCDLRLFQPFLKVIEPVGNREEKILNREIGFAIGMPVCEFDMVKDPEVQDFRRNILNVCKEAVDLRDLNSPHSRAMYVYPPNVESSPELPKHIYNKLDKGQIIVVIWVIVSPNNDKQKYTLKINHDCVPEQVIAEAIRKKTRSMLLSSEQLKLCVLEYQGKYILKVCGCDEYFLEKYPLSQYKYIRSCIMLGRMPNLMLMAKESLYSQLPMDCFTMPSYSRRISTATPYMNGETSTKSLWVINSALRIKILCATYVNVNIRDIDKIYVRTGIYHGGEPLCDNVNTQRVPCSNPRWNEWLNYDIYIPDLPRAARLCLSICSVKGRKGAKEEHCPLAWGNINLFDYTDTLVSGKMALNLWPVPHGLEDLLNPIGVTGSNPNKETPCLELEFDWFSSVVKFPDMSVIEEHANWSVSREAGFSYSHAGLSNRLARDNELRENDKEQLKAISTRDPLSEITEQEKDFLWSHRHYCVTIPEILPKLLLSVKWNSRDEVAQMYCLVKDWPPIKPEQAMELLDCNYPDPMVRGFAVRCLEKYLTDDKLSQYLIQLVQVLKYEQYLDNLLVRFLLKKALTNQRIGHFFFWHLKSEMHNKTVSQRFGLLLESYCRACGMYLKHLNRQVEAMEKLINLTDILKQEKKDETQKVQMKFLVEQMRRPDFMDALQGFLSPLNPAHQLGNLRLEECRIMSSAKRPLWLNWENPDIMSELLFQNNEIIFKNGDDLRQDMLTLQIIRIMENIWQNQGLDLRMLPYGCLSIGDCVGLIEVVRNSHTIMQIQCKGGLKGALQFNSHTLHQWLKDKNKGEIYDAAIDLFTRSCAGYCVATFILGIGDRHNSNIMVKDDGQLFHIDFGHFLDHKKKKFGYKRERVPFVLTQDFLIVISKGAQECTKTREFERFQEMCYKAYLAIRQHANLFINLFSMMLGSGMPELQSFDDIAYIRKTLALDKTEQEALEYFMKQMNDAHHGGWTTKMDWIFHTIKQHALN

| IC50 [µM] | Compound |
| --- | --- |
| 1.33 | CN(C)C1CCN(Cc2cc3nc(-c4c[nH]c5ccc(F)cc45)nc(N4CCOCC4)c3s2)CC1 |
| 0.396 | c1ccc2c(-c3nc(N4CCOCC4)c4nc(CN5CC(N6CCOCC6)C5)sc4n3)c[nH]c2c1 |
| 1.38 | O=C1COC2(CCN(Cc3cc4nc(-c5c[nH]c6ccccc56)nc(N5CCOCC5)c4s3)CC2)CN1 |
| 0.529 | CC(C)(OCCN1CCCC1)c1cc2nc(-c3c[nH]c4ccccc34)nc(N3CCOCC3)c2s1 |
| 0.495 | CN(C)C1CCN(Cc2cc3nc(-c4c[nH]c5ccccc45)nc(N4CCOCC4)c3s2)CC1 |
| 0.809 | CC(C)(C(N)=O)N1CCN(Cc2cc3nc(-c4c(C#N)[nH]c5ccccc45)nc(N4CCOCC4)c3s2)CC1 |

The next lines start with the compound.

| Compound | IC50 [µM] |
| --- | --- |
| Cc1cc2cc(F)ccc2n1-c1nc(N2CCOCC2)c2sc(CN3CCC(N(C)C)CC3)cc2n1 | 1.6 |
| COCc1cc2ccccc2n1-c1nc(N2CCOCC2)c2nc(CN3CCC(C(C)(C)O)CC3)n(C)c2n1 | 5.39 |
| CN(C)C1CCN(Cc2cc3nc(-n4ccc5cc(O)ccc54)nc(N4CCOCC4)c3s2)CC1 | 0.814 |
| CN(C)[C@@H]1CCN(Cc2nc3c(N4CCOCC4)nc(-c4c[nH]c5ccccc45)nc3n2C)C[C@@H]1F | 0.72 |
| CN(C)C1CCN(Cc2cc3nc(N4CCc5ccccc54)nc(N4CCOCC4)c3s2)CC1 | 0.707 |
| Cn1c(CN2CCC(C(C)(C)O)CC2)nc2c(N3CCOCC3)nc(-n3c(C#N)cc4ccccc43)nc21 | 5.3 |
| Cn1c(CN2CCC(N3CCOCC3)CC2)nc2c(N3CCOCC3)nc(-c3c[nH]c4ccccc34)nc21 | 5.01 |
| CN(C)C1CCN(Cc2cc3nc(-n4ccc5ccccc54)nc(N4CCOCC4)c3s2)CC1 | 0.562 |
